# Measurements from US20090136561A1, “Non-peptidyl agents with pHSP20-like activity, and uses thereof” (Prolexys Pharmaceuticals, Inc., priority 2004, published 2009).
# Several values for one entry are separate records, joined by “and”; a condition that tells them apart may be missing. Equal entries are not always repeated. Entries after “also recorded” stand apart in the source; their conditions may differ. Non-standard residues stand in square brackets, D forms with d. Residues, ends and D or L forms follow the SMILES beside them. pS = N[C@@H](COP(=O)(O)O)C(=O)O
# Experiments:
# [1] = test system: Primary human airway smooth muscle cells; assay: Magnetic twisting cytometry, cell stiffness (storage modulus G'); format: cell-based; details: for change of cell stiffness (storage modulus): controls, measured over 10 minutes
# Procedure: Primary human airway smooth muscle cells were isolated from healthy individuals and cultured to passage 3-6. The cells were grown to confluence, and then serum deprived for 24 hours. The serum-deprived cells were plated on plastic wells coated with collagen. After the cells were plated, RGD-coated microbeads were added. As described by Wang et al. Science 260:1124-1127, 1993, the microbeads become tightly anchored to the cell cytoskeleton. Consequently, the movement of the cells can be determined by monitoring the motion of the microbeads.
# Once the cells were attached to the microbeads, the beads were magnetized using a magnetizing coil and twisted using a twisting coil, which generates an oscillating magnetic field at 0.7 Hz. The bead displacement is measured using video microscopy at 83 ms intervals. The amplitude of bead displacement is dependent on several factors, but generally the displacement is directly proportional to cell stiffness. The cell stiffness is expressed as a change of storage modulus (G′) over time (Maksym et al., J. Appl. Physiol. 89: 1619-1632, 2000).
# The cell stiffness for control experiments and experiments using peptides was measured over 10 minutes. The peptides were added 1 minute after the start of the experiment. The cell stiffness for non-peptidyl compounds of the invention was measured for 1 minute, stopped, compound added and stiffness was measured for another 10 minutes.
# [2] = molecular target: T1, interaction between 14-3-3γ and pHSP20 (Homo sapiens, UniProt P61981); assay: Fluorescence polarization assay of 14-3-3γ / fluorescein-labeled pHSP20 peptide (WLRRApSAP) interaction; format: binding; details: for inhibition of interaction between 14-3-3γ and pHSP20: dose response, FIG. 9; for IC50: multiple concentrations, FIG. 10
# T1 sequence (P61981 1-247): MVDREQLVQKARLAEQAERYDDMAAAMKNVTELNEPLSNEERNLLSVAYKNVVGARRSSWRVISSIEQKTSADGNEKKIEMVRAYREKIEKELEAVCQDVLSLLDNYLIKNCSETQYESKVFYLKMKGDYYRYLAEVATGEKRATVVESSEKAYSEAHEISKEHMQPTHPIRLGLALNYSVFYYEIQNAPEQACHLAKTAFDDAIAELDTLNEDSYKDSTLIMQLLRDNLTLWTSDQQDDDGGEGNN
# Procedure: The ability of compounds (a)-(k) to inhibit the interaction between 14-3-3γ and pHSP20 was determined by a fluorescence polarization (FP) assay. […] The initial screen for inhibitors examined approximately 50,000 compounds in the DiverSet library (ChemBridge, San Diego). Initial compound screening was carried out by first mixing peptide and individual compounds followed by addition of protein to a final volume of 15 ul. The final concentrations of each component were: 57.4 nM peptide, 10 uM compound, 5% DMSO, 1.5 uM 14-3-3 gamma, 0.01 M HEPES pH 7.4, 0.15 M NaCl, 3 mM EDTA, 0.005% Tween 20, 10 mM MnCl2, 9.33 mM Tris (7.5), and 0.0093% NaN3.
# The ability of compounds (l) and (m) to inhibit the interaction between 14-3-3γ and pHSP20 was determined by a fluorescence polarization (FP) assay as described in Example 4, except that the compound was measured at multiple concentrations.
# 14-3-3 gamma isoform = molecular target: T2, 14-3-3 gamma isoform (Homo sapiens, UniProt P61981); assay: Biacore competition: 14-3-3 gamma flowed over immobilized pHSP20 peptide in presence of competing peptides; format: binding; details: free peptide as competitor
# T2 construct: GST-His (E23) or Biotin-His (E25)
# T2 sequence (P61981 1-247): T1 sequence (P61981 1-247)
# Procedure: To determine the relative binding affinity between various truncated versions of the pHSP20 (phosphorylated HSP20) peptide and the 14-3-3 gamma isoform, Applicants employed Biacore binding assays and the experiments were set up as follows. The pHSP20 peptide used in the original experiments (e.g., WLRRAp[…]) was immobilized to a Biacore chip and competition experiments were performed by flowing a 14-3-3 gamma isoform protein over the chip in the presence of different pHSP20 truncation variants. The pHSP20 truncation variants included: a) pHSP20 (positive control); b) HSP20 (unphosphorylated pHSP20, negative control); c) RRApSAP (minimal 14-3-3 consensus binding sequence); d) WLRRApSAP; e) RRApSAPLP; f) RRAp[…]; g) WLRRApSAPLP.
# Competition experiments were done whereby the only variable between experiments is the identity of the competing peptide.
# 14-3-3 proteins = assay: Pull-down with bead-immobilized peptides from HEK293 whole cell lysate, SDS-PAGE and MS analysis; format: binding, human; details: peptide immobilized on Affigel 10 beads
# Procedure: To determine if the pHSP20 peptide binds to 14-3-3, pull-down experiments were conducted with pHSP20 and its analogues, aHSP20 and scrHSP20, linked to NHS activated Affigel 10 beads. As an additional control, activated beads were also reacted with ethanolamine. Each of the bead-bound peptide samples and the ethanolamine control were then separately incubated for 1.5 h at 4° C. with a whole cell lysate derived from HEK293 cells. After thoroughly washing the beads, each of the four sets of beads was eluted with a 100 μM solution of the free peptide corresponding to the one immobilized on the beads; the ethanolamine control beads were eluted with pHSP20. Approximately 15% of the eluate volume was run on an SDS-PAGE gel, while the remainder of the eluate was precipitated with ethanol and then analyzed by a 2D-LC shotgun MS method (Washburn et al., 2001, Nat. Biotechnol. 19:242).
# The N-terminal amino group of the peptides was utilized for the immobilization to N-hydroxysuccinimide activated Affi-Gel 10 beads (Biorad, Hercules, Calif.). For the immobilization, 60 μg of each peptide, dissolved in dimethylformamide (DMF), was incubated for 4 h with 100 μl beads and 0.14 μmol triethylamine (Sigma, St. Louis, Mo.). The final volume during the immobilization was 400 μl. […] The release of the ivDde group was monitored by measuring the absorption at 290 nm. […]
# [3] = test system: 14-3-3 isoforms (YWHAG, YWHAH, YWHAE, YWAHB, YWHAZ); assay: Biacore binding of tagged 14-3-3 isoforms to immobilized pHSP20 peptide; details: E23- and E25-tagged 14-3-3 proteins
# Procedure: To further determine binding specificity of the pHSP20 peptide for each 14-3-3 isoform, similar binding experiments were carried out with each 14-3-3 isoform. Various 14-3-3 isoforms were either tagged with GST-His (referred to as “E23”) or tagged with Biotin-His (referred to as “E25”). The E23-14-3-3 proteins (tagged with GST-His) bound much better than the E25-14-3-3 proteins (tagged with Biotin-His). Similar effects were detected by using a version of YWHAG (also referred to as 14-3-3γ) in which the GST tag was proteolytically removed. […] It is believed that the GST either has a chaperone or stabilizing effect on YWHAG or it promotes the formation of dimers of YWHAG which could have different binding properties to pHSP20. Further experiments are planned to elucidate this discrepancy.
# [4] = test system: Primary human airway smooth muscle cells; assay: Spontaneous bead motion (MSD) of RGD-coated microbeads on airway smooth muscle cells; format: cell-based; details: for effect on bead motion: formulated with 4% cyclodextrin, 10-15 minutes incubation
# Procedure: Primary human airway smooth muscle cells were isolated from healthy individuals and cultured to passage 3-6. The cells were grown to confluence, and then serum deprived for 24 hours. The serum-deprived cells were plated on plastic wells coated with collagen.
# After the cells were plated, RGD-coated microbeads were added. […] Consequently, the movement of the cells can be determined by monitoring the motion of the microbeads. In this assay, the rate of spontaneous bead motions (i.e., cell motion) depends upon the rate of reorganization of the actin cytoskeleton.
# The position of each bead was recorded using video microscopy. The two-dimensional trajectory of bead motion are expressed as a mean square displacement (MSD) as a function of time: […]
# where ri(t) is the distance of the ith bead at time t relative to its position at time 0.
# The spontaneous bead motion in each sample of cells was first measured for 5 minutes. […] Spontaneous bead motions were then measured for another 5 minutes.
# [5] = test system: Bovine coronary artery rings; assay: Contraction/dilation of serotonin-treated bovine coronary artery rings; format: cell-based; details: for effect on the rings: cyclodextrin formulation, serotonin treated, 30 minutes after treatment
# Procedure: Bovine coronary artery rings were treated with compositions containing only cyclodextrin or formulations of cyclodextrin in combination with a pHSP20 peptide, compound (m) or compound (n). The contraction of the rings was measured over time after treatment with serotonin and one of the formulations above. Each of the formulations was tested at several concentrations, with the exception of the pHSP20 peptide.
molecule,measurement,setting,value
CC(C)NCC(O)c1ccc(O)c(O)c1 (stereo not drawn) [isoproterenol],change of cell stiffness (storage modulus),[1],decreased the stiffness
CC(C)(C)c1nc(Nc2ccccc2)s[n+]1C=C(Cl)Cl [(a)],inhibition of interaction between 14-3-3γ and pHSP20,[2],able to largely inhibit interaction
RRApSAP,competition with immobilized pHSP20 peptide for binding to 14-3-3γ,14-3-3 gamma isoform,competed better than the original pHSP20 sequence; also recorded: higher binding affinity to 14-3-3 gamma than the original pHSP20 peptide; also recorded: strong competition
CC(C)C[C@H](NC(=O)CNC(=O)[C@@H]1CCCN1C(=O)[C@H](CC(C)C)NC(=O)[C@@H]1CCCN1C(=O)[C@H](C)NC(=O)[C@H](COP(=O)(O)O)NC(=O)[C@H](C)NC(=O)[C@H](CCCNC(=N)N)NC(=O)[C@H](CCCNC(=N)N)NC(=O)[C@H](CC(C)C)NC(=O)[C@@H](N)Cc1c[nH]c2ccccc12)C(=O)N[C@@H](CO)C(=O)N[C@@H](CCCCN)C(=O)O [pHSP20 peptide] (H-WLRRA[pS]APLPGLSK-OH; N-terminus and C-terminus assumed),binding of 14-3-3 proteins in pull-down,14-3-3 proteins,binds to 14-3-3 proteins
same,competition with immobilized pHSP20 peptide for binding to 14-3-3γ,14-3-3 gamma isoform,binding of 14-3-3 to the pHSP20 ligand is decreased
same,isoform specificity for the pHSP20 peptide,[3],YWHAG>YWHAH>YWHAE=YWAHB=YWHAZ and 14-3-3γ (YWHAG) and 14-3-3η (YWHAH) bind stronger than the other 14-3-3 isoforms
O=[N+]([O-])C1=Cc2cc(Br)cc(Br)c2OC1c1c(Cl)cccc1Cl (stereo not drawn) [compound (l)],IC50,[2],~32 µM
WLRRApSAP,competition with immobilized pHSP20 peptide for binding to 14-3-3γ,14-3-3 gamma isoform,higher binding affinity to 14-3-3 gamma than the original pHSP20 peptide; also recorded: strong competition
NCCc1c[nH]cn1 [histamine],change of cell stiffness (storage modulus),[1],increased the cell stiffness
c1ccc(CNc2nc(-c3ccccc3)[n+](-c3ccccc3)s2)cc1 [compound (f)],inhibition of interaction between 14-3-3γ and pHSP20,[2],able to largely inhibit interaction
same,effect on bead motion,[4],clearly increases bead motion
same,change of cell stiffness compared to the cyclodextrin control,"[1]; solubilized with cyclodextrin, 10 minutes after addition",particular striking
O=C(N/N=C/c1ccc(O)c(O)c1O)c1ccncc1 [compound (m)],IC50,[2],~13.5 µM
same,duration of vasodilatory effect compared with pHSP20 peptide,[5],longer than that of the pHSP20 peptide
same,vasodilatory effect at 40 minutes after treatment,[5],no significant decrease in the vasodilatory effect
same,effect on the rings,[5],vasodilatory effect
same,effect on bead motion,[4],not conclusive
"O=[As]O [sodium arsenite, reference compound]",effect on bead movement,"[4]; 200 μM, negative control",decrease in bead movement
COc1ccccc1Nc1nc(-c2ccccc2)[n+](-c2ccccc2)s1 [(j)],inhibition of interaction between 14-3-3γ and pHSP20,[2],able to largely inhibit interaction
COc1ccc(/C=N/NC(=O)c2cncc(Br)c2)c(OC)c1OC [compound (n)],duration of vasodilatory effect compared with pHSP20 peptide,[5],longer than that of the pHSP20 peptide
same,vasodilatory effect at 40 minutes after treatment,[5],no significant decrease in the vasodilatory effect
same,effect on the rings,[5],vasodilatory effect
same,effect on bead motion,[4],not conclusive
O=C(N/N=C/c1cc(O)ccc1Br)c1ccncc1 [(o)],effect on bead motion,[4],not conclusive
